Broadly, the melting point is the temperature, or range, at which the solid turns liquid. `c1ccc(-c2nn3c(c2-c2cccc4nsnc24)CCC3)nc1` [Example 4, 4-[2-(Pyridin-2-yl)-5,6-dihydro-4H-pyrrolo[1,2-b]pyrazol-3-yl]-benzo [2,1,3]thiadiazole] displayed a melting point of 140 to 142 °C. With `c1ccc(-c2nn3c(c2-c2ccc4nsnc4c2)CCC3)nc1` [Example 5, 5-[2-(Pyridin-2-yl)-5,6-dihydro-4H-pyrrolo[1,2-b]pyrazol-3-yl]benzo[2,1,3]thiadiazole], the melting point fell in the range of 184 to 186 °C. Then `c1ccc(-c2nn3c(c2-c2nc4ncccc4[nH]2)CCC3)nc1` [Example 8, 2-[2-(Pyridin-2-yl)-5,6-dihydro-4H-pyrrolo[1,2-b]pyrazol-3-yl]-1H-imidazo[4,5-b]pyridine], with 170 to 172 °C.

On to `c1ccc(-c2nn3c(c2-c2nc4cnccc4[nH]2)CCC3)nc1` [Example 9, 2-[2-(Pyridin-2-yl)-5,6-dihydro-4H-pyrrolo[1,2-b]pyrazol-3-yl]-1H-imidazo[4,5-c]pyridine], for which the melting point was in the range of 201 to 203 °C. Then `c1ccc(-c2nn3c(c2-c2nc4ccccc4[nH]2)CCC3)nc1` [Example 10, 2-[2-(Pyridin-2-yl)-5,6-dihydro-4H-pyrrolo[1,2-b]pyrazol-3-yl]-1H-benzoimidazole], with 172 to 175 °C; and `c1ccc(-c2nn3c(c2-c2nc4ncccc4o2)CCC3)nc1` [Example 11, 2-[2-(Pyridin-2-yl)-5,6-dihydro-4H-pyrrolo[1,2-b]pyrazol-3-yl]-oxazolo[4,5-b]pyridine], with 182 to 184 °C. The value for `c1ccc(-c2nn3c(c2-c2cncc4cccnc24)CCC3)nc1` [Example 80a, 8-(2-Pyridin-2-yl-5,6-dihydro-4H-pyrrolo[1,2-b]pyrazol-3-yl)-[1,6]naphthyridine] was 180 to 184 °C.

Source of the values: patent US7405299B2, “Compounds as pharmaceutical agents” (Eli Lilly and Company, priority 2003, dated 2008).
